Test [1] concerns the target Transthyretin (Homo sapiens) (UniProt P02766). Nature of the test: Binding affinity to TTR in human plasma assessed as binding stoichiometry at 10.8 uM after 24 hrs under dark condition by RP-HPLC based antibody capture method. In kind it is cell-free.
The target is the same in test [2]. Put plainly: Inhibition of wild type TTR aggregation expressed in Escherichia coli assessed as fibril formation at 7.2 uM after 72 hrs relative to untreated-control.
For test [3], the target named is Prostaglandin G/H synthase 1 (Homo sapiens) (UniProt P23219). Put plainly: Inhibition of COX1 assessed as inhibition of arachidonic acid conversion to prostaglandin-E2 release at 10 uM.
Prostaglandin G/H synthase 1 (Homo sapiens), sequence (P23219 whole entry): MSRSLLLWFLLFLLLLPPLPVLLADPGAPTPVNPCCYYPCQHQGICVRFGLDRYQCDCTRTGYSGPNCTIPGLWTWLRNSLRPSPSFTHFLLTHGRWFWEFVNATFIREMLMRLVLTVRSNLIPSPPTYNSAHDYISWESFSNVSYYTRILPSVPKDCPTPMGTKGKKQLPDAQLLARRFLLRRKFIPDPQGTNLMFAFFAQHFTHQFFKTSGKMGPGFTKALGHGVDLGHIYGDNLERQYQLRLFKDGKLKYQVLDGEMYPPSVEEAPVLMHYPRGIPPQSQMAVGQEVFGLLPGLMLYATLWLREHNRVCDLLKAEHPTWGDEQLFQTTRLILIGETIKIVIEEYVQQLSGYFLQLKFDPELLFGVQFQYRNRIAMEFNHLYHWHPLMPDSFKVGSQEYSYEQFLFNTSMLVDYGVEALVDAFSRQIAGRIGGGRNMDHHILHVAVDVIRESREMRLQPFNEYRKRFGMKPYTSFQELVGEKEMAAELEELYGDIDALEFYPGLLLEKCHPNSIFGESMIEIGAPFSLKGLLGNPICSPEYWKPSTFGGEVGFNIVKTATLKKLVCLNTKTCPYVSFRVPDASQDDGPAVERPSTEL
Test [4] is described as follows: Displacement of [125I]triiodothyronine from thyroid hormone receptor at 10 uM by scintillation counting. (In general: Displacement assays read how much labelled ligand stays bound in the presence of the test substance.)

Broadly, the inhibition is the change of the read-out against control, counted positive when it falls. In the case of `O=C(Nc1cc(Br)c(O)c(Br)c1)c1ccccc1Br`, the Activity in test [1] came to 1.56. The inhibition in test [2] was 1%; in test [3], under 5%; in test [4], 8%.

Consider `O=C(Nc1cc(Br)c(O)c(Br)c1)c1cc(F)cc(F)c1`, for which the Activity in test [1] was 1.02. The inhibition in test [2] was 10%; in test [3], under 5%; in test [4] it was 28%.

For the compound `O=C(Nc1cc(Br)c(O)c(Br)c1)c1ccccc1Cl`, in test [1], the Activity was determined as 1.48. Further, the values for the inhibition in test [2], in test [3] and in test [4] were 2%, under 5% and 3%, respectively.

`O=C(O)c1cccc(C(=O)Nc2cc(Br)c(O)c(Br)c2)c1`: the Activity in test [1] was determined as 0.16. The results for the inhibition in test [2], in test [3] and in test [4] were 11%, 17% and 0%, respectively.

With `O=C(Nc1cc(Br)c(O)c(Br)c1)c1ccc(O)cc1`, the Activity in test [1] was 1.33. The figures for the inhibition in test [2], in test [3] and in test [4] were 21%, under 5% and 8%, respectively.

On to `Cc1cc(C(=O)Nc2cc(Br)c(O)c(Br)c2)cc(C)c1O`, for which the Activity in test [1] turned out to be 1.7. Besides, the inhibition in test [2] is 3%; in test [3], under 5%; in test [4], 5%.

Consider `O=C(Nc1cc(Br)c(O)c(Br)c1)c1cc(Br)ccc1Br`, for which, in test [1], the Activity was found to be 1.4. The results for the inhibition in test [2], in test [3] and in test [4] were 1%, under 5% and 0%, respectively.

As for `O=C(Nc1cc(Br)c(O)c(Br)c1)c1cccc(F)c1`, the Activity in test [1] worked out at 0.68. The inhibition in test [2] is 13%; in test [3] it was under 5%; in test [4] it was 3%.

For the compound `COc1c(Br)cc(C(=O)Nc2cc(Br)c(O)c(Br)c2)cc1Br`, the Activity in test [1] came out at 1.13. Further, the inhibition was found to be 10% in test [2], 23% in test [3] and 0% in test [4].

As for `Nc1cccc(C(=O)Nc2cc(Br)c(O)c(Br)c2)c1`, the Activity in test [1] stood at 1.21. For the same compound, the inhibition is 25% in test [2], under 5% in test [3] and 0% in test [4].

For `O=C(Nc1cc(Br)c(O)c(Br)c1)c1cccc(Cl)c1`, the Activity in test [1] worked out at 1.09. Besides, the inhibition in test [2] was 8%; in test [3], under 5%; in test [4], 5%.

For `Cc1cccc(C(=O)Nc2cc(Br)c(O)c(Br)c2)c1`, the Activity in test [1] came to 0.85. In addition, the inhibition in test [2] is 12%; in test [3] it was under 5%; in test [4], 2%.

Regarding `COc1ccccc1C(=O)Nc1cc(Br)c(O)c(Br)c1`, the Activity in test [1] was 1.88. The inhibition in test [2] is 2%; in test [3], under 5%; in test [4], 3%.

In the case of `O=C(Nc1cc(Br)c(O)c(Br)c1)c1c(Cl)cccc1Cl`, the Activity in test [1] stood at 1.67. The inhibition in test [2] is 1%; in test [3], under 5%; in test [4], 3%.

`COc1cccc(OC)c1C(=O)Nc1cc(Br)c(O)c(Br)c1`: in test [1], the Activity was found to be 0.62. The inhibition in test [2] is 3%; in test [3] it was under 5%; in test [4] it was 1%.

As to `Nc1ccccc1C(=O)Nc1cc(Br)c(O)c(Br)c1`, in test [1], the Activity is 1.58. Besides, the inhibition was 3% in test [2], under 5% in test [3] and 6% in test [4].

Values taken from ChEMBL document CHEMBL1140932, “Toward optimization of the second aryl substructure common to transthyretin amyloidogenesis inhibitors using biochemical and structural studies” (J Med Chem, 2009).
